Consider 17 compounds from ChEMBL document CHEMBL4038274, “Design, synthesis and biological evaluation of multifunctional tacrine-curcumin hybrids as new cholinesterase inhibitors with metal ions-chelating and neuroprotective property” (Bioorg Med Chem, 2017).

Active and inactive are the calls of the source. The rule behind the calls is not given here.

Data set [1] addresses Cholinesterase (Equus caballus, UniProt P81908).
Description: Inhibition of equine serum BuChE using butyrylthiocholine iodide as substrate preincubated for 5 mins followed by substrate addition measured at 1 min interval for 3 mins by Ellmans method
For data set [2], the target named is Acetylcholinesterase (Torpedo californica, UniProt P04058).
Sequence of Acetylcholinesterase (P04058 whole entry): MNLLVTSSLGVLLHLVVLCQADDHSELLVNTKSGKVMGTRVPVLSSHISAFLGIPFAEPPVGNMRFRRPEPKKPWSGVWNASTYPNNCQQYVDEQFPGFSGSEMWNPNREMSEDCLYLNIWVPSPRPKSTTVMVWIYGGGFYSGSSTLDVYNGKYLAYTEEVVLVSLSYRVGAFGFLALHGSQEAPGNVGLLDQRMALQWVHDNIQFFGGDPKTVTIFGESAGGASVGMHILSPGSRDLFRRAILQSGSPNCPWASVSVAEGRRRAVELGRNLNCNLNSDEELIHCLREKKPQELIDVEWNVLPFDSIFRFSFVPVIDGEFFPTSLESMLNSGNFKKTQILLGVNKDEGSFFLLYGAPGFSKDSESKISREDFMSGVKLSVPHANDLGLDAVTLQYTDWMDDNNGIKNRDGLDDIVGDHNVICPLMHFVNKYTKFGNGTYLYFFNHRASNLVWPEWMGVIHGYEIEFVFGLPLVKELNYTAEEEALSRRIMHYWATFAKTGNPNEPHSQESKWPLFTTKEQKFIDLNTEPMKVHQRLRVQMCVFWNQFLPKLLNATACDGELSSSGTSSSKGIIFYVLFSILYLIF
Description: Inhibition of Torpedo californica AChE using acetylthiocholine iodide as substrate preincubated for 5 mins followed by substrate addition measured at 1 min interval for 3 mins by Ellman's method
The nature of data set [3]: Metal chelating activity assessed as compound-Cu2+ complex formation at 25 uM after 30 mins by UV spectrophotometric analysis. Format: functional.
A short description of data set [4]: Metal chelating activity assessed as compound-Fe2+ complex formation at 25 uM after 30 mins by UV-spectrophotometric analysis. In kind it is functional.
The test system of data set [5] is PC-12. Description: Neuroprotective activity against H202-induced toxicity in rat PC12 cells assessed as increase in cell viability at 0.1 to 10 uM after 24 hrs by MTT assay. In kind it is functional, cell-based.
The subject of data set [6] is PC-12. As to the kind of experiment: Neuroprotective activity against Abeta42-induced toxicity in rat PC12 cells assessed as increase in cell viability at 0.1 to 10 uM after 24 hrs by MTT assay. Format: functional, cell-based. (Tetrazolium dyes change colour on reduction, which living cells bring about.)
For data set [7], the system named is PC-12. As to the kind of experiment: Neuroprotective activity against H202-induced toxicity in rat PC12 cells assessed as increase in cell viability after 24 hrs by MTT assay. In kind it is functional, cell-based.
Data set [8] deals with PC-12. As to the kind of experiment: Neuroprotective activity against Abeta42-induced toxicity in rat PC12 cells assessed as increase in cell viability after 24 hrs by MTT assay. Format: functional, cell-based.
Data set [9] relates to PC-12. Description: Cytotoxicity against rat PC12 cells at 0.1 to 10 uM after 24 hrs by MTT assay. Format: cell-based. The settings on record: pc-12, 24 h.

Sequence of Cholinesterase (P81908 whole entry): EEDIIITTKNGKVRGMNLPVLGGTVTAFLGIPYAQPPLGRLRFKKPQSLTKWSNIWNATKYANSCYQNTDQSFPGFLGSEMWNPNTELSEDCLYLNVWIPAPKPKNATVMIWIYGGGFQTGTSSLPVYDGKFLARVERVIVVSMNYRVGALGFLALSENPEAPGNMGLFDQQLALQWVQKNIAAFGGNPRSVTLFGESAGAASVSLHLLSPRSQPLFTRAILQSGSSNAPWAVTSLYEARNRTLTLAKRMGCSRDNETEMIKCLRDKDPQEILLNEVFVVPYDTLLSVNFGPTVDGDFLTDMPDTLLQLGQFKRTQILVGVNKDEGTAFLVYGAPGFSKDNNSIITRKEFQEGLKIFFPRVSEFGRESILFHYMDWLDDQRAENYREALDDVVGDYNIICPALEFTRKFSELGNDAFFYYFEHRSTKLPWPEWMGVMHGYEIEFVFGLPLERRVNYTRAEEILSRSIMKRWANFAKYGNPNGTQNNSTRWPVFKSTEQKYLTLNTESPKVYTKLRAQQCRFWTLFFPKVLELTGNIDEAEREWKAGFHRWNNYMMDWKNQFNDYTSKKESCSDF

On to `CC(=O)C(Cc1ccc(O)cc1)C(=O)NCCCCCCNc1c2c(nc3ccccc13)CCCC2` (stereo not drawn), for which the IC50 (as a rule, the concentration at which inhibition is half-maximal) in [1] was 200 nM; in [2], 130 nM.

For `CC(=O)C(Cc1ccc(O)cc1)C(=O)NCCCCNc1c2c(nc3ccccc13)CCCC2` (stereo not drawn), the figures for the IC50 in [1] and in data set [2] were 390 nM and 1990 nM, respectively.

Regarding `COc1cc(/C=C(\C(C)=O)C(=O)NCCCNc2c3c(nc4ccccc24)CCCC3)ccc1O`, the IC50 turned out to be 1870 nM in data set [1] and 1260 nM in [2].

On to `CC(=O)/C(=C\c1ccc(O)cc1)C(=O)NCCCCCCNc1c2c(nc3ccccc13)CCCC2`, for which the IC50 in [1] was 2240 nM; in [2], 2950 nM.

Take `COc1cc(CC(C(C)=O)C(=O)NCCCCNc2c3c(nc4ccccc24)CCCC3)ccc1O` (stereo not drawn): the IC50 in data set [1] is 3380 nM; in [2] it was 3680 nM.

Regarding `CC(=O)/C(=C\c1ccc(O)cc1)C(=O)NCCCNc1c2c(nc3ccccc13)CCCC2`, the half-maximal inhibitory concentration (IC50) stood at 1600 nM in [1] and 9640 nM in [2].

Turning to `COc1cc(CC(C(C)=O)C(=O)NCCCNc2c3c(nc4ccccc24)CCCC3)ccc1O` (stereo not drawn), the results for the IC50 in data set [1] and in [2] were 1310 nM and 5710 nM, respectively.

Take `CC(=O)CC(=O)NCCCCCCNc1c2c(nc3ccccc13)CCCC2`: the half-maximal inhibitory concentration (IC50) was found to be 220 nM in data set [1] and 570 nM in [2].

In the case of `COc1cc(/C=C(\C(C)=O)C(=O)NCCCCCCNc2c3c(nc4ccccc24)CCCC3)ccc1O`, the outcome in [3] and in data set [4] was Active. For the same compound, the IC50 in data set [1] came out at 1500 nM; in data set [2] it was 290 nM.

As to `COc1cc(/C=C/C(=O)CC(=O)/C=C/c2ccc(O)c(OC)c2)ccc1O`, the result in data set [5] and in data set [6] was Active.

Turning to `CC(=O)/C(=C\c1ccc(O)cc1)C(=O)NCCCCNc1c2c(nc3ccccc13)CCCC2`, the IC50 in data set [1] was 4770 nM; in data set [2], 3800 nM.

As to `COc1cc(CC(C(C)=O)C(=O)NCCCCCCNc2c3c(nc4ccccc24)CCCC3)ccc1O` (stereo not drawn), the result in data set [3] and in data set [4] was Active. Further, the IC50 was 220 nM in data set [1] and 80 nM in data set [2]. In addition, the Activity entry is “Dose-dependent effect” in data set [7], “Dose-dependent effect” in data set [8] and “Non-Toxic” in data set [9].

With `CC(=O)C(Cc1ccc(O)cc1)C(=O)NCCCNc1c2c(nc3ccccc13)CCCC2` (stereo not drawn), the IC50 was 830 nM in data set [1] and 8760 nM in data set [2].

For the compound `CC(=O)CC(=O)NCCCNc1c2c(nc3ccccc13)CCCC2`, the IC50 in [1] is 60 nM; in [2], 240 nM.

Take `CC(=O)CC(=O)NCCNc1c2c(nc3ccccc13)CCCC2`: the IC50 was determined as 310 nM in data set [1] and 460 nM in data set [2].

Consider `CC(=O)CC(=O)NCCCCNc1c2c(nc3ccccc13)CCCC2`, for which the result in data set [3] and in data set [4] was Active. The IC50 in [1] was determined as 160 nM; in data set [2], 90 nM.

Turning to `COc1cc(/C=C(\C(C)=O)C(=O)NCCCCNc2c3c(nc4ccccc24)CCCC3)ccc1O`, the IC50 in data set [1] is 2110 nM; in data set [2] it was 2100 nM.
